From patent US8258158B2 (Hoffmann-La Roche Inc., priority 2009, dated 2012)

Biological target: T1, human HSL (Homo sapiens, UniProt Q05469)
T1 construct: overlapping PCR to generate a full length human HSL ORF with a 3′-His6 tag; His6 (C); made in house; host or cells: High 5 insect cells (baculovirus, pFast-BAC)
T1 sequence (Q05469 1-1076): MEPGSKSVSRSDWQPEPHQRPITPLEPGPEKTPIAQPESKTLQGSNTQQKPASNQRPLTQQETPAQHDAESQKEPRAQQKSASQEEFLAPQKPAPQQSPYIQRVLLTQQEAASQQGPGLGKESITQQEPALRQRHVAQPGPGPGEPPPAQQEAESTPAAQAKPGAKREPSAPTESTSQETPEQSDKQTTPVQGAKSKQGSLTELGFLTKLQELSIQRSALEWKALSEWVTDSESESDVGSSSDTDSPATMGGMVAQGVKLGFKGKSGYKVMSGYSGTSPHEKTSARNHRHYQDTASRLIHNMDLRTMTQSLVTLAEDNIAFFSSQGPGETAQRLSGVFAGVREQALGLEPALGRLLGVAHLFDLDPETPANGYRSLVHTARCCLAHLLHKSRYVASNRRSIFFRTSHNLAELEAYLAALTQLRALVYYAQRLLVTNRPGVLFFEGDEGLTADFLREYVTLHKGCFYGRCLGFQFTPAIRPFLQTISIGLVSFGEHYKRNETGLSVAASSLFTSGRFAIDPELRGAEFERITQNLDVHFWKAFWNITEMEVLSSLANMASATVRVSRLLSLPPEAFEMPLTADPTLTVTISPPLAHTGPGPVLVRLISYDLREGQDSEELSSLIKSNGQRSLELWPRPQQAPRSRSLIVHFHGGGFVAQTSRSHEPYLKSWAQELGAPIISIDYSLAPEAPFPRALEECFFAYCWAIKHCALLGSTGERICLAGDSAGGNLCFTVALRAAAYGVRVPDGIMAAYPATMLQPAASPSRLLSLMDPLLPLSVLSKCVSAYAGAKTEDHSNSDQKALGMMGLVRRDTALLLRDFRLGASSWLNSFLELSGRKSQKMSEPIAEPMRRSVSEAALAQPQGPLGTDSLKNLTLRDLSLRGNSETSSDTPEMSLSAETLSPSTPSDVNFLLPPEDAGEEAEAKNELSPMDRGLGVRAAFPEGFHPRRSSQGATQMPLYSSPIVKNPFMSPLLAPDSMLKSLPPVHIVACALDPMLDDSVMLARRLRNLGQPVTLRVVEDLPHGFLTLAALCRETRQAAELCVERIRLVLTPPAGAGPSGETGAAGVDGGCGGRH
Assay: Human hormone-sensitive lipase (HSL) enzyme inhibition assay (colorimetric, DMPT substrate)
Assay type: biochemical
Conditions: human full length HSL-His6; 2,3-dimercapto-1-propanol tributyrate substrate; 37° C., 20 minutes; read-out: HSL hum IC50
Description: Production of Human Full Length Hormone Sensitive Lipase-His^6:
1) Cloning: cDNA was prepared from commercial human brain polyA+ RNA and used as a template in overlapping PCR to generate a full length human HSL ORF with a 3′-His6 tag. This full length insert was cloned into the pFast-BAC vector and the DNA-sequence of several single clones was verified. DNA from a correct full length clone with the 3′His6 tag was used to transform the E. coli strain DH10BAC. Resulting bacmid DNA was used to generate a titered baculovirus stock for protein generation. The sequence of the encoded HSL conforms to Swissprot entry Q05469, with the additional C-terminal His6-tag.
2) Protein purification: Culture: 5.5 L, High 5 cells expressing human full length HSL-His^6, 48 hr., containing 25 μM E-64. Cell count: […], 90% viable. Cells were thawed. On ice, cells were suspended in Base Buffer containing 10% glycerol, 25 mM Tris-Cl, 300 mM NaCl, 10 mM imidazole, 10 mM 2-mercaptoethanol, 2 μg pepstatin/ml, 2 μg leupeptin/ml, 2 μg antipain/ml, pH 8.0 at 4° C. in a final volume of 475 ml with 3.75×10^7 cells/ml. […] was done at 3×30 sec., Lubrol PX was added to 0.2% final concentration followed by stirring for 15 min. at 4° C. and centrifugation at 25 k×g, 60 min., 4° C. Soluble proteins were mixed with 60 ml of pre-washed and equilibrated Ni-NTA Agarose (Qiagen 30210) followed by tumbling end-over-end, 45 min., 4° C., centrifugation 1000 rpm 5 min and letting resin settle 5 min. Supernatant was removed, the resin washed in the centrifuge vessel using 5 volumes of Base Buffer containing 0.2% Lubrol PX. Centrifugation was done again, then the supernatant discarded. The resin was poured onto a 0.8 μm membrane in a disposable filter unit (Nalge 450-0080), and washed with 5 volumes of Base Buffer containing 0.2% Lubrol PX. It was then washed with 30 volumes of Base Buffer containing 60 mM imidazole pH 7.5 at 4° C. The protein was eluated with 5 volumes of 25 mM Tris-Cl, 300 mM NaCl, 200 mM imidazole, 10 mM 2-mercaptoethanol, pH 7.5 at 4° C. by tumbling resin with buffer end-over-end, 30 min., 4° C. The resin was captured on a 0.2 μm membrane disposable filter unit (Millipore SCGP U02 RE) and the eluate collected in the reservoir. The eluate was concentrated using a 30 k MWCO centrifugal filter device (Sartorius Vivascience Vivacell 100, VC1022), to 20 ml. It was then dialyzed overnight at 4° C., two times against 2 L of 10% glycerol, 25 mM Tris-Cl, 300 mM NaCl, 0.2 mM EDTA, 0.2 mM DTT, pH 7.5 at 4° C. The protein was filtered using a 0.22 μm disposable filter unit (Millipore SCGP00525). The protein concentration was calculated from absorbance at 280 nm, using 280=0.67 cm-1 mg-1. Yield was 235 mg, total. The protein was stored at −80° C.
Human Hormone-Sensitive Lipase (HSL) Enzyme Inhibition Assay:
HSL enzyme activity was measured by a colorimetric assay using 2,3-dimercapto-1-propanol tributyrate (Aldrich, St. Louis, Mo.) as a substrate. Typically, 1.5 mM 2,3-dimercapto-1-propanol tributyrate (DMPT) in 100 mM MOPS, pH 7.2, 0.2 mg/ml fatty acid-free BSA was prepared by sonication at 4° C. to homogenous suspension. Test compounds (2 mM stock in DMSO) were diluted 3 fold in series in DMSO. Compound solutions were diluted 24 fold in 1.5 mM DMPT containing solution and 18 ul per well was added to 384-well microplates (Corning Costar). Twelve microliters per well of human HSL (15 ug/ml) was added and the reaction mixture was incubated at 37° C. for 20 minutes. Six microliters of 12 mM dithio-bis-(2-nitrobenzoic acid) (DTNB) in DMSO plus 1.2% SDS and 0.6% Triton X-100 were added and the mixture was incubated at room temperature for 15 minutes. Product production was monitored by reading absorbance at 405 nm on an Envision Reader (PerkinElmer Life and Analytical Sciences, Shelton, Conn.).

SMILES	IC50 [nM]
CC(Oc1ccc(NC(=O)C2CCN(C(=O)c3ccccc3Cl)CC2)cc1)C(F)(F)F (racemic) [Example 44, (rac)-1-(2-Chloro-benzoyl)-piperidine-4-carboxylic acid [4-(2,2,2-trifluoro-1-methyl-ethoxy)-phenyl]-amide]	620
Cc1ccc(S(=O)(=O)N2CCC(C(=O)Nc3ccc(OC(CO)C(F)(F)F)cc3)CC2)cc1 (racemic) [Example 45, (rac)-1-(Toluene-4-sulfonyl)-piperidine-4-carboxylic acid [4-(2,2,2-trifluoro-1-hydroxymethyl-ethoxy)-phenyl]-amide]	150
CC1(C(=O)Nc2ccc(OC(C)(C)C(F)(F)F)cc2)CCN(S(=O)(=O)c2ccccc2)CC1 (racemic) [Example 50, (rac)-1-Benzenesulfonyl-4-methyl-piperidine-4-carboxylic acid [4-(2,2,2-trifluoro-1,1-dimethyl-ethoxy)-phenyl]-amide]	810
Cc1ccc(S(=O)(=O)N2CCC(C(=O)Nc3ccc(OCC(O)C(F)(F)F)cc3)CC2)cc1 (racemic) [Example 52, (rac)-1-(Toluene-4-sulfonyl)-piperidine-4-carboxylic acid [4-(3,3,3-trifluoro-2-hydroxy-propoxy)-phenyl]-amide]	860
COC(COc1ccc(NC(=O)C2CCN(S(=O)(=O)c3ccc(C)cc3)CC2)cc1)C(F)(F)F (racemic) [Example 53, (rac)-1-(Toluene-4-sulfonyl)-piperidine-4-carboxylic acid [4-(3,3,3-trifluoro-2-methoxy-propoxy)-phenyl]-amide]	660
COCC(Oc1ccc(NC(=O)C2CCN(S(=O)(=O)c3ccc(C)cc3)CC2)cc1)C(F)(F)F (racemic) [Example 54, (rac)-1-(Toluene-4-sulfonyl)-piperidine-4-carboxylic acid [4-(2,2,2-trifluoro-1-methoxymethyl-ethoxy)-phenyl]-amide]	80
Cc1ccc(S(=O)(=O)N2CCC(CO)(C(=O)Nc3ccc(OC(C)C(F)(F)F)cc3)CC2)cc1 (racemic) [Example 55, (rac)-4-Hydroxymethyl-1-(toluene-4-sulfonyl)-piperidine-4-carboxylic acid [4-(2,2,2-trifluoro-1-methyl-ethoxy)-phenyl]-amide]	1420
Cc1ccc(S(=O)(=O)N2CCC(C(=O)Nc3ccc(OC(F)(F)F)cc3)CC2)cc1 [Example 1, 1-(Toluene-4-sulfonyl)-piperidine-4-carboxylic acid (4-trifluoromethoxy-phenyl)-amide]	80
CC(C)c1ccc(NC(=O)C2CCN(S(=O)(=O)c3ccccc3)CC2)cn1 [Example 2, 1-Benzenesulfonyl-piperidine-4-carboxylic acid (6-isopropyl-pyridin-3-yl)-amide]	240
COc1ccc(NC(=O)C2CCN(S(=O)(=O)c3ccccc3)CC2)nn1 [Example 3, 1-Benzenesulfonyl-piperidine-4-carboxylic acid (6-methoxy-pyridazin-3-yl)-amide]	12000
Cc1ccc(S(=O)(=O)N2CCC(C(=O)Nc3ccc(OC(C)C)cc3)CC2)cc1 [Example 7, 1-(Toluene-4-sulfonyl)-piperidine-4-carboxylic acid (4-isopropoxy-phenyl)-amide]	70
CC(C)c1ccc(NC(=O)C2CCN(C(=O)CC3CC3)CC2)cc1 [Example 8, 1-(2-Cyclopropyl-acetyl)-piperidine-4-carboxylic acid (4-isopropyl-phenyl)-amide]	800
CC(C)c1ccc(NC(=O)C2CCN(C(=O)CCC3CC3)CC2)cc1 [Example 9, 1-(3-Cyclopropyl-propionyl)-piperidine-4-carboxylic acid (4-isopropyl-phenyl)-amide]	350
CC(C)c1ccc(NC(=O)C2CCN(C(=O)CC(C)(C)C)CC2)cc1 [Example 10]	200
COCCCC1(C(=O)Nc2ccc(OC(C)C)cc2)CCN(S(=O)(=O)c2ccccc2)CC1 [Example 12, 1-Benzenesulfonyl-4-(3-methoxy-propyl)-piperidine-4-carboxylic acid (4-isopropoxy-phenyl)-amide]	920
Cc1ccc(S(=O)(=O)N2CCC(C(=O)Nc3ccc(OC(F)F)cc3)CC2)cc1 [Example 13, 1-(Toluene-4-sulfonyl)-piperidine-4-carboxylic acid (4-difluoromethoxy-phenyl)-amide]	120
Cc1ccc(S(=O)(=O)N2CCC(C(=O)Nc3ccc(OCC(F)(F)F)cc3)CC2)cc1 [Example 14, 1-(Toluene-4-sulfonyl)-piperidine-4-carboxylic acid [4-(2,2,2-trifluoro-ethoxy)-phenyl]-amide]	160
Cc1ccc(S(=O)(=O)N2CCC(C(=O)Nc3ccc(OC(C)C)cc3F)CC2)cc1 [Example 15, 1-(Toluene-4-sulfonyl)-piperidine-4-carboxylic acid (2-fluoro-4-isopropoxy-phenyl)-amide]	470
Cc1ccc(S(=O)(=O)N2CCC(C(=O)N(C)c3ccc(OC(F)(F)F)cc3)CC2)cc1 [Example 16, 1-(Toluene-4-sulfonyl)-piperidine-4-carboxylic acid methyl-(4-trifluoromethoxy-phenyl)-amide]	40
Cc1ccc(S(=O)(=O)N2CCC(C(=O)Nc3ccc4c(c3)CCO4)CC2)cc1 [Example 17, 1-(Toluene-4-sulfonyl)-piperidine-4-carboxylic acid (2,3-dihydro-benzofuran-5-yl)-amide]	770
